Tests used:
[1] = test system: human leukemic cells (CEM); experiment: Cytotoxicity of RR1 treated lymphocytes (functional assay, active caspase-3); format: cell-based; details: RR1 0-100 μg/ml, 24 hours, then co-incubation with CEM
Experimental: Normal lymphocytes were treated with RR1 (0-100 μg/ml) for 24 hours in RPMI medium. The cells were washed and co-incubated with PKH26-labeled human leukemic CEM cells for 12 hours for the active NK cells to lyse the tumor cells. The cell mixtures were stained with FITC-labeled and activated caspase-3 monoclonal antibody. The percentage of PKH26+ and Caspase-3+ cells were quantified by analyzing in a Beckman-Coulter Elite flow cytometer (**p=0.01).
Cytotoxicity of RR1 treated lymphocytes. To evaluate the enhanced cytotoxicity of activated lymphocytes, a functional assay was adopted using RR1-activated lymphocytes as effecter cells and human leukemic cells (CEM) as targets (Liu, L. et al. Nat. Med., 2002, 8:185-189; Jerome, K. R. et al. Nat. Med., 2003, 9:4-5). Briefly, normal lymphocytes (10^6/ml) were treated with different concentrations of RR1 in RPMI medium for 24 hours in a CO2 incubator at 37° C. […] The percentage of cells killed by the activated NK cells was determined by fixing the mixture with 1 ml of 2% paraformaldehyde solution for 30 minutes on ice followed by suspending in 0.5% Tween 20 in PBS. The cell mixture was stained with 7.5 μl of anti-active caspase-3-FITC antibody (BD Biosciences, CA) for 30 minutes at room temperature, washed with PBS and analyzed in a Coulter Elite Flow Cytometer.

normal lymphocytes [2] = experiment: Nitric oxide (NO) synthesis, Griess assay; format: cell-based, human; details: RR1 0-100 μg/ml, 24 hours
Experimental: Normal lymphocytes from healthy volunteers were treated with RR1 (0-100 μg) at 37° C. for 24 in a CO2 incubator in MEM medium. The supernatant medium was analyzed for the production of NO using assay kit from Active Motif, Carlsbad, Calif. and data analyzed using ANOVA (p=0.109).
The NO quantification was assayed by Nitric Oxide quantification kit (ACTIVE MOTIF, Carlsbad, Calif.) as per the manufacturer's protocol. Briefly, lymphocytes (10^6/ml) were incubated with varying concentrations of RR1 (0-100 μg/ml) for 24 hours in a nitrate free medium (DULBECO Minimum Essential Medium) at 37° C. The cell culture supernatant (70 μl) was pipetted into the wells of a 96-well plate along with 20 μl reconstituted co-factor and 10 μl nitrate reductase enzyme solution. The plate was shaken at 150 rpm on a plate shaker for 30 minutes at room temperature. Griess reagents A and B (50 μl each) were added into each well, allowed the color to develop for 20 minutes and the absorbance was taken at 540 nm with a reference wavelength of 620 nm in the BIO-RAD plate reader.

normal lymphocytes [3] = experiment: Oxidative stress (GSH/GSSG levels); format: cell-based, human; details: for GSH / GSH/GSSG / GSSG: 24 hours
Experimental: Oxidative stress (GSH/GSSG levels). The measure of the reduced (GSH) as well as oxidized (GSSG) levels of glutathione and their ratio are useful indicators for oxidative stress. The levels of GSH and GSSG were assayed by a colorimetric method using Biotech GSH/GSSG-412 kit (Oxis Research, Portland, Oreg.) according to manufacturer's protocol. Briefly, normal blood samples from healthy donors were incubated with different concentrations of RR1 for 24 hours in a 5% CO2 incubator at 37° C. For GSSG, 100 μl of each of the treated sample was frozen at −70° C. for 4 hours, thawed and added 290 μl of 5% meta phosphoric acid (MPA). The samples were vortexed for 15-20 seconds and centrifuged at 1000×g for 10 minutes. MPA extract (50 μl) was added to 700 μl of GSSG buffer that was used for the calorimetric assay. For GSH measurement 50 μl of the whole blood was frozen at −70° C., thawed and added 350 μl of 5% MPA, vortexed for 15-20 seconds and centrifuged at 10,000×g for 10 minutes. MPA extract (50 μl) was added to 3 ml of the assay buffer and used for further analysis. MPA buffer mixture (200 μl) of each standard and sample was transferred to a spectrophotometer cuvette, added 200 μl of chromogen followed by 200 μl of enzyme in the order and incubated at room temperature for 5 minutes. Afterwards, 200 μl of NADPH was added into the cuvette and changes in the absorbance at 412 nm were recorded in a BECKMAN spectrophotometer. The reaction rates were plotted using the absorbance values and the levels of GSH and GSSG were determined.

[4] = test system: HEK293 cells transfected with TLR2; experiment: TLR signaling, IL-8 ELISA; format: cell-based, human; details: HEK/TLR2, 24 hours
Experimental: (§1) TLR signaling. To determine the involvement of TLR signaling, parental HEK293 as well as HEK293 cells transfected with human TLR2, TLR6, TLR2/6 or TLR4/CD14/MD2 genes (cloned into pDUO plasmid), were used. These cells (0.5×10^6/ml) were incubated with 0-100 μg/ml of RR1 for 24 hours. Since these cells produce very low level of TNF-α and detectable levels of IL-8 upon activation, IL-8 secreted into the medium was analyzed using ELISA procedure. Incidentally, the IL-8 synthesis is also under the control of the transcription factor NF-κB.

[5] = test system: HEK293 cells transfected with TLR4/CD14/MD2; experiment: TLR signaling, IL-8 ELISA; format: cell-based, human; details: HEK/TLR4/CD14/MD2, 24 hours
Experimental: as §1

parental HEK293 cells = experiment: TLR signaling, IL-8 ELISA; format: cell-based, human; details: parental HEK, RR1 0-100 μg/ml, 24 hours
Experimental: as §1

[6] = test system: HEK293 cells transfected with TLR2/6; experiment: TLR signaling, IL-8 ELISA; format: cell-based, human; details: HEK/TLR2/6, RR1 0-100 μg/ml, 24 hours
Experimental: HEK293/TLR2/TLR6 cells (1×10^6) were treated with RR1 (0, 10, 50 and 100 μg/ml) at 37° C. for 24 hours and secreted IL-8 in the medium was analyzed by ELISA protocol.
as §1

GSH (normal lymphocytes [3]; RR1 5 μg/ml): 365.08 ± 3.81 µM
GSH/GSSG (normal lymphocytes [3]; RR1 5 μg/ml): 14.05 ± 0.41
GSSG (normal lymphocytes [3]; RR1 5 μg/ml): 22.77 ± 0.58 µM
GSH (normal lymphocytes [3]; RR1 10 μg/ml): 366.10 ± 0.97 µM
GSH/GSSG (normal lymphocytes [3]; RR1 10 μg/ml): 14.34 ± 0.35
GSSG (normal lymphocytes [3]; RR1 10 μg/ml): 22.67 ± 0.41 µM
GSH (normal lymphocytes [3]; RR1 50 μg/ml): 364.43 ± 0.10 µM
GSH/GSSG (normal lymphocytes [3]; RR1 50 μg/ml): 14.25 ± 0.40
GSSG (normal lymphocytes [3]; RR1 50 μg/ml): 22.75 ± 0.55 µM
oxidative stress in lymphocytes (normal lymphocytes [3]; indicated by GSH, GSSG and their ratio): does not produce any oxidative stress
Substance: (1,4)-α-D-glucan [RR1]
killing of tumor cells by RR1-treated normal lymphocytes [1]: dose-dependent enhancement of cytotoxicity
increase in NO (normal lymphocytes [2]): ≤ 21%
IL-8 production [4]: did not induce IL-8 production
IL-8 production [5]: did not induce IL-8 production
IL-8 production (parental HEK293 cells): did not induce IL-8 production
IL-8 production [6]: copious induction of IL-8
